# In patent publication US8628961B2, “Small molecule antagonists of phosphatidylinositol-3,4,5-triphosphate (PIP3) and uses thereof” (Tufts University, priority 2010, dated 2014):
# Columns and labels:
# U87MG cells [1] = test: Sensitization of U87MG cells to TRAIL, ATP assay; format: cell-based, human; settings: 10 ng/ml TRAIL, 48 hr
# Description: FIG. 10 is a bar graph depicting that PITs, as well as Akt inhibitor VIII, sensitize U87MG cells to killing by TRAIL. U87MG cells were incubated with 50 μM PIT-1, PIT-2, PIT-1i-1 or 10 μM Akt inhibitor VIII in the presence or absence of 10 ng/ml TRAIL for 48 hr, followed by cell viability analysis using ATP assay.
# Upregulation of PI3K/Akt signaling is an important mechanism of chemoresistance of cancer cells. Blume-Jensen P et al. (2001) Nature 411:355-65; Osaki M et al. (2004) Apoptosis 9:667-76. […] Puduvalli V K et al. (2005) Apoptosis 10:233-43 TRAIL represents a particularly promising anti-cancer agent due to its intrinsic selectivity towards cancer cells which is associated with the expression of the decoy receptors by many (but not all) normal cells. Abe K et al. (2000) Ann NY Acad Sci 926:52-63. […] Oka N et al. (2005) Cancer Res 65:7546-53.
# HUVEC = test: Endothelial tube formation assay on Matrigel; format: cell-based, human; settings: P>0.05
# Description: The tube formation assay was performed in 96-well plates. Wells were pre-coated with 70 μl of the Matrigel basement membrane matrix (BD Biosciences) per well for 1 hr at 37° C. HUVEC were suspended in serum-free M199 medium and plated on Matrigel at a density of 2×10^4 cells per well. PIT-1 was added at indicated concentrations (3.125-100 μM). After an 8 hr incubation at 37° C., phase-contrast images of the endothelial tubes were obtained using a Nikon TE2000 microscope, and tube formation was assessed by counting the number of closed tubes in five random fields from each well.
# U87MG cells [2] = test: Cell death with pan-caspase inhibitor zVAD.fmk, Sytox assay; format: cell-based, human; settings: 100 μM zVAD.fmk
# Description: FIG. 11 is a bar graph depicting that cell death triggered by PIT-1 alone or in combination with TRAIL is inhibited by pan-caspase inhibitor zVAD.fmk. U87MG cells were incubated with or without 100 μM zVAD.fmk together with PIT-1 (25, 50, 100 μM) in the presence or absence of 10 ng/ml TRAIL for 24 hr, and analyzed by Sytox cell death assay.
# Since PI3K/PIP3/Akt signaling plays a critical role in the inhibition of apoptosis (Datta S R et al. (1999) Genes Dev 13:2905-27), the possibility that PITs induce apoptosis was examined. […] Proapoptotic Bcl-2 family members Bax and Bak are important mediators of apoptosis. Wei M C et al. (2001) Science 292:727-30. […] Non-apoptotic mechanisms of cell death may also play some additional, albeit less important, role in PIT-induced killing, as some cell death was still observed in Bax/Bak-deficient cells and in the presence of zVAD.fmk.
# PH123 = PH123 (Homo sapiens (Human), UniProt P31749); test: Lipid overlay assay of PIP3/PH123 binding
# Sequence of PH123 (P31749 1-123): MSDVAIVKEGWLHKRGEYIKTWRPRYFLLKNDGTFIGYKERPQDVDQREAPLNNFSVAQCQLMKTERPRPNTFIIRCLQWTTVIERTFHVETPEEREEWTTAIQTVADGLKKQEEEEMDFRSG
# Rac1 = Rac1 activation pull-down (GST-Pak1-PBD), western blot; format: cell-based, human; settings: SUM159, PDGF
# Description: Rho/Rac family, especially Rac1, plays a critical role in actin polymerization, membrane ruffling/lamellipodia formation, and cell motility (Ridley A J et al. (1992) Cell 70:401-410) downstream of the GEFs, e.g., VAV family, and upstream of the WAVE family. The effect of PITs on Rac1 activation was therefore analyzed. SUM159 cells were seeded on 10 cm^2 plates and serum starved overnight, treated with different PIT compounds at a variety of concentrations for 2 hr, and then stimulated with 100 ng/ml PDGF for 15 min. Next, cells were rinsed once with PBS, and 1 ml lysis buffer (25 mM Tris-HCl, pH 7.5, 150 mM NaCl, 5 mM MgCl2, 1% NP-40, 1 mM DTT, 5% glycerol, 1 μg/ml aprotinin, 1 μg/ml leupeptin and 1 mM PMSF) was added per plate. The cells were scraped and transferred to a microcentrifuge tube, vortexed briefly, and incubated on ice for 5 min, followed by a centrifugation at 16,000×g at 4° C. for 15 min. The supernatant was collected. A sample of the lysate was used to ensure equal protein concentration in the samples. Next, 700 μl lysate, 20 μl glutathione-sepharose beads, and 20 μg GST-human Pak1-PBD were mixed together, and the reaction mixture was incubated at 4° C. for 1 hr with gentle rocking. The beads were then washed three times with lysis buffer, and proteins were eluted by boiling beads in 50 μl of the 2×SDS sample buffer at 95-100° C. for 5 min. […]
smiles,measurement,setting,value
O=C(NC(=S)Nc1cc([N+](=O)[O-])cc(Cl)c1O)c1ccccc1 [PIT-1],sensitization of U87MG cells to killing by TRAIL,U87MG cells [1],substantially sensitized U87MG cells to killing by TRAIL
same,cell viability under tube formation conditions,HUVEC,No loss of cell viability
same,"cell death, alone or with TRAIL, in presence of zVAD.fmk",U87MG cells [2],inhibited by a pan-caspase inhibitor zVAD.fmk
same,inhibitory effect on PIP3/PH123 binding,PH123,concentration-dependent inhibitory effect
same,activation of Rac1 caused by growth factor stimulation,Rac1,efficiently suppressed the activation of Rac1
